Results taken from PubChem BioAssay (NCI).
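In this assay, cells in 96-well plates receive the compound at five concentrations for 48 hours. Endpoints are linearly interpolated between the surrounding concentrations. TGI denotes the concentration required for complete inhibition of growth.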

Columns and labels:
Assay in all cases: NCI-60 cell line screen, 48 h
[1] = tested on: UACC-62 melanoma
[2] = tested on: CAKI-1 renal
[3] = tested on: HOP-92 NSCLC
[4] = tested on: A549 NSCLC
[5] = tested on: A498 renal
[6] = tested on: ACHN renal
[7] = tested on: IGROV1 ovarian
[8] = tested on: RXF 393 renal
[9] = tested on: SF-268 CNS
[10] = tested on: HOP-62 NSCLC
[11] = tested on: KM12 colon
[12] = tested on: UACC-257 melanoma
[13] = tested on: SK-OV-3 ovarian
[14] = tested on: NCI/ADR-RES ovarian
[15] = tested on: M14 melanoma
[16] = tested on: HS 578T breast
[17] = tested on: EKVX NSCLC
[18] = tested on: TK-10 renal
[19] = tested on: SK-MEL-2 melanoma
[20] = tested on: OVCAR-5 ovarian
[21] = tested on: SNB-75 CNS
[22] = tested on: SF-295 CNS
[23] = tested on: T-47D breast
[24] = tested on: NCI-H23 lung
[25] = tested on: CCRF-CEM leukemia
[26] = tested on: NCI-H226 lung
[27] = tested on: OVCAR-8 ovarian
[28] = tested on: BT-549 breast
[29] = tested on: HT29 colon
[30] = tested on: MDA-MB-231 breast
[31] = tested on: MDA-MB-435
[32] = tested on: OVCAR-4 ovarian
[33] = tested on: MCF7 breast
[34] = tested on: HL-60(TB) leukemia
[35] = tested on: LOX IMVI melanoma
[36] = tested on: SF-539 CNS
[37] = tested on: HCT-116 colon
[38] = tested on: 786-0 renal
[39] = tested on: UO-31 renal
[40] = tested on: HCC-2998 colon
[41] = tested on: HCT-15 colon
[42] = tested on: SK-MEL-28 melanoma
[43] = tested on: SN12C renal
[44] = tested on: SK-MEL-5 melanoma
[45] = tested on: NCI-H522 lung
[46] = tested on: MALME-3M melanoma
[47] = tested on: U251 CNS
[48] = tested on: RPMI-8226 leukemia
[49] = tested on: NCI-H460 lung
[50] = tested on: SW-620 colon
[51] = tested on: OVCAR-3 ovarian
[52] = tested on: PC-3 prostate
[53] = tested on: SR leukemia

Measured: TGI

CCOc1ccc(NC(=O)/C(=N\N)C(C(=O)OC)c2nc3ccc(Cl)cc3[nH]c2=O)cc1 (stereo not drawn)
> 100 µM: all assays above
